Measurements from ChEMBL document CHEMBL1201862, “PubChem BioAssay data set” (2004).
Where “and” joins values, the source holds several entries; their conditions need not be identical. Identical values can stand only once. Counter-ions that a name gives are not always drawn. Calls of active or inactive are those of the source.

Key:
[1] = biological target: T1, RNA-binding protein pos-1 (Caenorhabditis elegans, UniProt G5EF15); assay: disruptors of C. elegans POS-1 RNA interaction – biochemical, fluorescence polarization, dose response (AID 1964);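 further: purified POS-1 fused to maltose binding protein made in E. coli; potency of compounds blocking POS-1 binding to fluorescent RNA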
T1 sequence (G5EF15 whole entry): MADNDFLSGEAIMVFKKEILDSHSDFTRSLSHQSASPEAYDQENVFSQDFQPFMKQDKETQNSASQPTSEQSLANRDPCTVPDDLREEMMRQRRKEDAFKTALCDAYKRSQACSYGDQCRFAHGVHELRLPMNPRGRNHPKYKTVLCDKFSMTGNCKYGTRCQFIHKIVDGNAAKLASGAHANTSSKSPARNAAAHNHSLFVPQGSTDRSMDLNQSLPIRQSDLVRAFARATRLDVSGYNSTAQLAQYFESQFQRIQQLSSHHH

[2] = biological target: Glycogen synthase kinase-3 beta (Homo sapiens, UniProt P49841); assay type: functional;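 further: value comes from a broad kinome profiling panel, with GSK3B as the panel member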
[3] = biological target: Receptor tyrosine-protein kinase erbB-4 (Homo sapiens, UniProt Q15303); assay type: functional;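 further: ERBB4 member of a kinome-wide kinase profiling panel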
[4] = biological target: Testis-specific serine/threonine-protein kinase 2 (Homo sapiens, UniProt Q96PF2); assay type: functional;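 further: part of the Navigating the Kinome panel, target entry STK22B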
[5] = biological target: cAMP-dependent protein kinase catalytic subunit alpha (Homo sapiens, UniProt P17612); assay type: functional
[6] = biological target: Rho-associated protein kinase 1 (Homo sapiens, UniProt Q13464); assay type: functional;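 further: measured within a broad kinome-wide panel profiling many kinases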
[7] = biological target: Tyrosine-protein kinase BTK (Homo sapiens, UniProt Q06187); assay type: functional
[8] = biological target: Serine/threonine-protein kinase TBK1 (Homo sapiens, UniProt Q9UHD2); assay: Navigating the Kinome. Panel member name: TBK1; assay type: functional
[9] = biological target: MAP kinase-activated protein kinase 5 (Homo sapiens, UniProt Q8IW41); assay type: functional;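 further: measured as one member of a kinome panel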
[10] = biological target: Tyrosine-protein kinase JAK3 (Homo sapiens, UniProt P52333); assay type: functional
Tyrosine-protein kinase JAK3, sequence (P52333 whole entry): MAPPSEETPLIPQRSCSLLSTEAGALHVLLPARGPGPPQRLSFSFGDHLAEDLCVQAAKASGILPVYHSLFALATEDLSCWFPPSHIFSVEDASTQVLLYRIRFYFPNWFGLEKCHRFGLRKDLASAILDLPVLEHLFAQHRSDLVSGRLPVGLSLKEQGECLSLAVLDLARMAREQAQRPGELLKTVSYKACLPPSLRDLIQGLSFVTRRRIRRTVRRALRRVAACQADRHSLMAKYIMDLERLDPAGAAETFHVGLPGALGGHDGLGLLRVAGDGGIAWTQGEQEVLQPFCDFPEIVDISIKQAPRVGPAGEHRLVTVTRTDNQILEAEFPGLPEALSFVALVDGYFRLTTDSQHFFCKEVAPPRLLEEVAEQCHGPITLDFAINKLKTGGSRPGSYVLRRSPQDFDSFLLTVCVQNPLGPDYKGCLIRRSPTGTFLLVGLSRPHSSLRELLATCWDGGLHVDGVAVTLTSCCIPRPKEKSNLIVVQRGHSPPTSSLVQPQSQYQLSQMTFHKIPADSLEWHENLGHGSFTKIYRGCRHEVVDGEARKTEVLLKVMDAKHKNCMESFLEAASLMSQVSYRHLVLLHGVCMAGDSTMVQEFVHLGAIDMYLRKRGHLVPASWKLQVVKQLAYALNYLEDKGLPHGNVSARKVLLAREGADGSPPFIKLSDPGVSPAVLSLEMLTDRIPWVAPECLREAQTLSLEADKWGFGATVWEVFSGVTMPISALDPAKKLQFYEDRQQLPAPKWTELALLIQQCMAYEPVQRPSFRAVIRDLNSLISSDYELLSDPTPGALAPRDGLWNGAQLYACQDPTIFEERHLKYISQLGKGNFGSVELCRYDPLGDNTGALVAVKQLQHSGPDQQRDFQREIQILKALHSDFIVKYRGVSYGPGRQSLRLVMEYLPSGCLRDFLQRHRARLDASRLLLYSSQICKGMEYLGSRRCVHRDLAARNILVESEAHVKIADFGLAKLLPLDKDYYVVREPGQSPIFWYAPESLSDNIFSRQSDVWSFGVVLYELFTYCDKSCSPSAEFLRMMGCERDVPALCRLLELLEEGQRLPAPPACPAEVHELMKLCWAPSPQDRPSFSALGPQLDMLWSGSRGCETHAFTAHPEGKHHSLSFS

[11] = biological target: Tyrosine-protein kinase Lck (Homo sapiens, UniProt P06239); assay type: functional;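 further: lck was assayed as one member of a kinase panel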
Ephrin type-A receptor 2 = Ephrin type-A receptor 2 (Homo sapiens, UniProt P29317); assay type: functional;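 further: EPHA2 tested as one member of a kinome-wide kinase panel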
[12] = biological target: Dual specificity mitogen-activated protein kinase kinase 1 (Homo sapiens, UniProt Q02750); assay: Navigating the Kinome. Panel member name: MAP2K1; assay type: functional
[13] = biological target: Casein kinase I isoform delta (Homo sapiens, UniProt P48730); assay type: functional;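 further: measured as one member (CSNK1D) of a kinome panel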
Casein kinase I isoform delta, sequence (P48730 whole entry, canonical isoform): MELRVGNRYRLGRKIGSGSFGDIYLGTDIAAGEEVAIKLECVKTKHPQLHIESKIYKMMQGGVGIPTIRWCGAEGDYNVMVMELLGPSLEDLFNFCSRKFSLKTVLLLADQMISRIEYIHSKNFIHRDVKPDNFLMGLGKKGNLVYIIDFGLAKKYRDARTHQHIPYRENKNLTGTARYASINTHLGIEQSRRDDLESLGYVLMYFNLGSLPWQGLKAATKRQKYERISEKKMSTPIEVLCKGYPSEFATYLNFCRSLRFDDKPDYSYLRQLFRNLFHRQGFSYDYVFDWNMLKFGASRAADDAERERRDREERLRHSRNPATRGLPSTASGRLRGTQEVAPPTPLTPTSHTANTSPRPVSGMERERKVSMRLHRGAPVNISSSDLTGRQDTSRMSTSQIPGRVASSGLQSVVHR

[14] = biological target: Serine/threonine-protein kinase PLK4 (Homo sapiens, UniProt O00444); assay type: functional;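 further: PLK4 measured as one member of a kinome-wide kinase profiling panel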
[15] = biological target: Calcium/calmodulin-dependent protein kinase type 1 (Homo sapiens, UniProt Q14012); assay type: functional
[16] = biological target: Dual specificity tyrosine-phosphorylation-regulated kinase 4 (Homo sapiens, UniProt Q9NR20); assay type: functional
[17] = biological target: RAC-gamma serine/threonine-protein kinase (Homo sapiens, UniProt Q9Y243); assay type: functional
[18] = biological target: High affinity nerve growth factor receptor (Homo sapiens, UniProt P04629); assay type: functional;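 further: NTRK1 tested as one member of a kinome-wide profiling panel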
High affinity nerve growth factor receptor, sequence (P04629 whole entry): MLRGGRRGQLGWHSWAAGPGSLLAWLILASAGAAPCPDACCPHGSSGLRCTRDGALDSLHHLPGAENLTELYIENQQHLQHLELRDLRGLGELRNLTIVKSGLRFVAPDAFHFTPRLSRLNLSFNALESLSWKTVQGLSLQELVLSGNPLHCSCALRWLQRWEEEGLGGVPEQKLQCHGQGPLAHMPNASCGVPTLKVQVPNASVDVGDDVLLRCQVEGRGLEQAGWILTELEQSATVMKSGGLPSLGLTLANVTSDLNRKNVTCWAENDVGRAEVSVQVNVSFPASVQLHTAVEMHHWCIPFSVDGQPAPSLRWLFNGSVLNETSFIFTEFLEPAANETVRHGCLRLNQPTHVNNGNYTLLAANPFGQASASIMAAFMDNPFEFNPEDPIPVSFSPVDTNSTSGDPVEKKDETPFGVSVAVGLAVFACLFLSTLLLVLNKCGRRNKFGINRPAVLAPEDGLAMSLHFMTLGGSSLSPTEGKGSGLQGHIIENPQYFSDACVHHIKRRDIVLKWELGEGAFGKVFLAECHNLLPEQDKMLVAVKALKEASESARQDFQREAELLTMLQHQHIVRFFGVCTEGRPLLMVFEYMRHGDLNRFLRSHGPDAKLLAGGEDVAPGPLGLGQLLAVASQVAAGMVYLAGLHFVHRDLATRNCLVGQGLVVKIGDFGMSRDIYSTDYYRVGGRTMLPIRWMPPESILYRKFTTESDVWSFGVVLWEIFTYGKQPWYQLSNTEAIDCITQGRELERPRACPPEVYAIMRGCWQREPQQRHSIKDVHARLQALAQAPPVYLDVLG

[19] = biological target: Testis-specific serine/threonine-protein kinase 1 (Homo sapiens, UniProt Q9BXA7); assay type: functional
Testis-specific serine/threonine-protein kinase 1, sequence (Q9BXA7 whole entry): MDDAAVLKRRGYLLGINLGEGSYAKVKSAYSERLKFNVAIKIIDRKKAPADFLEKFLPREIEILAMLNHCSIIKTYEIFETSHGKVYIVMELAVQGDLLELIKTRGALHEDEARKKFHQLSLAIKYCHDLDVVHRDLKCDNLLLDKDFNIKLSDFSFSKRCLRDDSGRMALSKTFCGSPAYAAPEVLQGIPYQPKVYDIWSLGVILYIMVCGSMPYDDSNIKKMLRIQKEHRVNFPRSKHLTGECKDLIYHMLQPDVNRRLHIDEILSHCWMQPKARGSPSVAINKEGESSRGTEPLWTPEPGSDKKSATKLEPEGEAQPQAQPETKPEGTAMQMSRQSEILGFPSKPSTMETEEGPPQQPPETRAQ

[20] = biological target: Serine/threonine-protein kinase pim-3 (Homo sapiens, UniProt Q86V86); assay type: functional;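 further: value obtained as one member of a broad kinase panel profiling effort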
Misshapen-like kinase 1 = Misshapen-like kinase 1 (Homo sapiens, UniProt Q8N4C8); assay type: functional;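 further: kinome panel screen with MINK as the panel member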
[21] = biological target: Dual specificity protein kinase CLK2 (Homo sapiens, UniProt P49760); assay type: functional
Dual specificity protein kinase CLK2, sequence (P49760 whole entry): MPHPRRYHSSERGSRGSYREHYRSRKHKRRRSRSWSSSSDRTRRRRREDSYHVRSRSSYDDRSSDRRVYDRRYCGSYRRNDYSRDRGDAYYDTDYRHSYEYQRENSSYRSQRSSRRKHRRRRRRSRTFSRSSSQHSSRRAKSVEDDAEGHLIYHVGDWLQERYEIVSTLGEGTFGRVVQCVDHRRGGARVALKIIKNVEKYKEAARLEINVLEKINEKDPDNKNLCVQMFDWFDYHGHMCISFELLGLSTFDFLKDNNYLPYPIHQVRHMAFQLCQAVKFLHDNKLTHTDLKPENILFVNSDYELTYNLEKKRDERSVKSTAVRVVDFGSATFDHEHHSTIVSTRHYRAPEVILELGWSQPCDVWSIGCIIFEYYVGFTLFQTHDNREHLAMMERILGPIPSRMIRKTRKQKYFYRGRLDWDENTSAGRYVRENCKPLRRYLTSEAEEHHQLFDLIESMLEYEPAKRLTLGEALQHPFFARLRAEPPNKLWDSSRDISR

[22] = biological target: Mitogen-activated protein kinase 14 (Homo sapiens, UniProt Q16539); assay type: functional;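 further: part of a kinome-wide panel, MAPK14 entry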
Mitogen-activated protein kinase 14, sequence (Q16539 whole entry): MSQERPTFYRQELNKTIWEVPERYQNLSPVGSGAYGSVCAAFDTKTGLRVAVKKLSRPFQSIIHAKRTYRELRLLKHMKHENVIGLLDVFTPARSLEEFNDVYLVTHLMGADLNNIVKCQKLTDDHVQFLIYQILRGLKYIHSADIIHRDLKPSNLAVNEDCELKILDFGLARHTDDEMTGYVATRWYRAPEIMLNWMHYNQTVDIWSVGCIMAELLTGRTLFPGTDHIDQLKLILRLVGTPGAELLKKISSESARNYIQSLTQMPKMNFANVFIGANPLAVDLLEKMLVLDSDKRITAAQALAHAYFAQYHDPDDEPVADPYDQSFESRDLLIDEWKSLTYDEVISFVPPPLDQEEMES

[23] = biological target: Inhibitor of nuclear factor kappa-B kinase subunit epsilon (Homo sapiens, UniProt Q14164); assay: Navigating the Kinome. Panel member name: IKBKE; assay type: functional
[24] = biological target: Serine/threonine-protein kinase 3 (Homo sapiens, UniProt Q13188); assay type: functional;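 further: measured as one member of a kinome-wide kinase panel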
Serine/threonine-protein kinase 3, sequence (Q13188 whole entry): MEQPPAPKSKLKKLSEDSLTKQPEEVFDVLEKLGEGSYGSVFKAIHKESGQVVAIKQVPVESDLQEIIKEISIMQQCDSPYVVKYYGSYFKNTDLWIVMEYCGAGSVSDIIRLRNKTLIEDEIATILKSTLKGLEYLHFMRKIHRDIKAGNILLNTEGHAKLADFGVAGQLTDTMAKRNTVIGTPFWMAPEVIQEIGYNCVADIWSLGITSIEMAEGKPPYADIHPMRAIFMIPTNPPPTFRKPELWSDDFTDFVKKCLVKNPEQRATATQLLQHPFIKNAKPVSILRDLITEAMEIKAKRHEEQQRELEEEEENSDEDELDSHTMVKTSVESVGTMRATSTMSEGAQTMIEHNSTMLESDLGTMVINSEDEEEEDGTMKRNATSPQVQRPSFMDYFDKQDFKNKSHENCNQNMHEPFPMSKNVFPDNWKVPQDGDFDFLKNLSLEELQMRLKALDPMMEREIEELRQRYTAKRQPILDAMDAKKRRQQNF

[25] = biological target: Serine/threonine-protein kinase Nek2 (Homo sapiens, UniProt P51955); assay type: functional
Serine/threonine-protein kinase Nek2, sequence (P51955 whole entry): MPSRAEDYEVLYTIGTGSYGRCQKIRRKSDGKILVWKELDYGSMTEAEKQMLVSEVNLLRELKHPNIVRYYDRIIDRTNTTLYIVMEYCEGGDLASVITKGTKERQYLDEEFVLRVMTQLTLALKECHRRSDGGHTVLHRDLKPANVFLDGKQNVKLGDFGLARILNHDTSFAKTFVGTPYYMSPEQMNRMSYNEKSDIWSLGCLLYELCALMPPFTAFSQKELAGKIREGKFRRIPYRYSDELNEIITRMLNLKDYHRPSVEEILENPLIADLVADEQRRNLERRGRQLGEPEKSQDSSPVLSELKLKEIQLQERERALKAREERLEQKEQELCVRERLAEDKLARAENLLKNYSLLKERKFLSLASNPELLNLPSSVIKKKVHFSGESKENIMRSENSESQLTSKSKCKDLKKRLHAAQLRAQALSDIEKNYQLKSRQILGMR

SUMO-activating enzyme = SUMO-activating enzyme (Homo sapiens, UniProt Q9UBT2); assay: blockers of UBC9-mediated SUMO conjugation – biochemical, AlphaScreen, SUMOylation inhibitor project, confirmation (AID 2018); assay type: functional
[26] = biological target: T2, Alkaline phosphatase, tissue-nonspecific isozyme (Homo sapiens, UniProt P05186); assay: inhibition of tissue-nonspecific alkaline phosphatase – biochemical, dose response (AID 488882); assay type: functional
T2 sequence (P05186 whole entry): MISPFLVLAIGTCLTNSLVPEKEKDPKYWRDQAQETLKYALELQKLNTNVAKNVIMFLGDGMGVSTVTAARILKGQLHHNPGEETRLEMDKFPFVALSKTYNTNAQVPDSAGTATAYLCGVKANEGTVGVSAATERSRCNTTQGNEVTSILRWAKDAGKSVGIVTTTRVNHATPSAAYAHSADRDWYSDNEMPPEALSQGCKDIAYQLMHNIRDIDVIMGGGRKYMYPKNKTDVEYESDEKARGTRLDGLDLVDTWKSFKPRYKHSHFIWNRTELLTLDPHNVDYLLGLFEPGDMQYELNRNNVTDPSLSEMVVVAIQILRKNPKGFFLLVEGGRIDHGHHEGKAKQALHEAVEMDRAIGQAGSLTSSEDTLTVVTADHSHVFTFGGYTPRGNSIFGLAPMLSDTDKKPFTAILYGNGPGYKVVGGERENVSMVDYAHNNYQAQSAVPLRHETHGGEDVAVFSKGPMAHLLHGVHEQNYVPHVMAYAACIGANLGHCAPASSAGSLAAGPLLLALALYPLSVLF

[27] = biological target: Intestinal-type alkaline phosphatase (Homo sapiens, UniProt P09923); assay: Dose Response confirmation of uHTS hits from a small molecule inhibitors of human intestinal alkaline phosphatase via a luminescent assay. [Related pubchem assays (depositor defined):AID2544, AID2574]; assay type: functional
Intestinal-type alkaline phosphatase, sequence (P09923 whole entry): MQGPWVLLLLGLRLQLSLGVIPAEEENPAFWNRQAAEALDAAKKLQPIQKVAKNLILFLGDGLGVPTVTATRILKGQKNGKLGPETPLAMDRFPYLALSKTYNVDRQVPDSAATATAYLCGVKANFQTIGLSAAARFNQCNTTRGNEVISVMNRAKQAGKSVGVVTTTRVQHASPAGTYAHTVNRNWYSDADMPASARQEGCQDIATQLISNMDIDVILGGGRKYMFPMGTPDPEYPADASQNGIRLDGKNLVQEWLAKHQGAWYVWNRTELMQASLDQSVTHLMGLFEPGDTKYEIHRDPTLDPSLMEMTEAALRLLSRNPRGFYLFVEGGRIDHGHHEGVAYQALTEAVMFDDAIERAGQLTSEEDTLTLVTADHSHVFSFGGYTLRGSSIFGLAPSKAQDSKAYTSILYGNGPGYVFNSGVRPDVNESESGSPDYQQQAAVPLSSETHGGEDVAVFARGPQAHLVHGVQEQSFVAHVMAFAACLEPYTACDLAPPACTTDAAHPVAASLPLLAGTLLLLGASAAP

Jurkat = assay: blockers of NF-kB activation in T cells – Jurkat, luciferase reporter, luminescence, B- and T-cell, dose response (AID 489004); assay type: functional, cell-based; details: Homo sapiens;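 further: NF-kB luciferase reporter Jurkat cells stimulated with PMA plus ionomycin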
HEK293 = assay: optical interference in Abeta FP readout, dose response, artefact control for IDE activator project, biochemical, fluorescence polarization (AID 588442); assay type: functional, cell-based; details: Homo sapiens
[28] = system: Streptococcus sp. 'group A'; assay: Streptococcus pyogenes SK(-)GAS viability under kanamycin – luminescence, BacTiterGlo, confirmation, counter-screen for streptokinase expression inhibitor project, dose response (AID 1900); assay type: functional, organism-based

In the case of `CC[C@@H](CO)NC(=O)[C@@H]1C=C2c3cccc4c3c(cn4C)C[C@H]2N(C)C1` [METHYSERGIDE MALEATE], the EC50 [1] was 10.3 µM (active) and 14.3 µM (active).

In the case of `CN1CCN(c2nc(C3=C(c4c[nH]c5ccccc45)C(=O)NC3=O)c3ccccc3n2)CC1` [SOTRASTAURIN], the Ki [2] was 0.2 µM (active), the Ki [3] was > 3.98 µM (inactive) and the Ki [4] was > 1.58 µM (inactive). The Ki [5] was > 1.26 µM (inactive), the Ki [6] was > 2 µM (inactive) and the Ki [7] was > 3.98 µM (inactive). The Ki [8] was > 3.16 µM (inactive), the Ki [9] was > 1.58 µM (inactive) and the Ki [10] was 0.631 µM (active). For the same compound, the Ki [11] was > 3.98 µM (inactive), the Ki (Ephrin type-A receptor 2) was > 3.16 µM (inactive) and the Ki [12] was 3.16 µM (active). For the same compound, the Ki [13] was > 7.94 µM (inactive), the Ki [14] was > 3.98 µM (inactive) and the Ki [15] was > 6.31 µM (inactive). The Ki [16] was > 7.94 µM (inactive), the Ki [17] was > 10 µM (inactive) and the Ki [18] was > 2.51 µM (inactive). For the same compound, the Ki [19] was > 1.58 µM (inactive), the Ki [20] was 0.316 µM (active) and the Ki (Misshapen-like kinase 1) was 0.00794 µM (active). The Ki [21] was > 2.51 µM (inactive), the Ki [22] was > 3.98 µM (inactive) and the Ki [23] was > 3.16 µM (inactive). The Ki [24] was 0.126 µM (active) and the Ki [25] was > 6.31 µM (inactive).

With `CCC(C)n1c(NC(=O)c2ccccc2)c(C#N)c2nc3ccccc3nc21` (stereo not drawn) the IC50 (SUMO-activating enzyme) was 3.51 µM (active).

For `CCN1/C(=C\c2ccc3ccccc3[n+]2CC)Sc2cc(C)ccc21`, the IC50 [26] was 28.6 µM (active), the IC50 [27] was 16.1 µM (inactive) and the IC50 (Jurkat) was 15.5 µM (active).

For `CCCCCCCCCCOC(=O)C[n+]1c(COc2ccc(C)cc2)n(C)c2ccccc21`, the EC50 (HEK293) was > 55.9 µM (inactive) and the EC50 [28] was 6.2 µM (active).
